The values that follow come from patent US20020082180A1, “Fabric cleaning system” (Unilever Home & Personal Care USA, Division of Conopco, Inc., priority 2000, published 2002).

The series can be described thus: log P, partitioning coefficient of the fluorescer between octanol and water. In kind it is physicochemical. As to conditions: octanol/water at ambient temperature. The text has this:
We have found the fluorescers of the present invention to be very effective when used with carbon dioxide whilst the fluorescers are readily soluble in carbon dioxide without the need for surfactants. A preferable selection of fluorescers can be described by their log P value. Log P being the partitioning coefficient of the fluorescer between octanol and water at ambient temperature, whereby P is the concentration of the fluorescer in octanol divided by the concentration of fluorescer in water. (Leo et al. Chem Rev 1971, 71, 525). If appropriate, the log P is determined in the presence of sodium and/or chloride as counterions. Accordingly, a preferred group of fluorescer has a log P of at least 2, more preferably at least 2.5. In many cases, the log P may also be estimated using specially designed programs, also described as clog P or calculated log P. However, if in certain cases these programs are inappropriate, the real log P should be measured.

SMILES strings stand for the structures.

For `c1ccc2oc(-c3ccc(-c4nc5ccccc5o4)s3)nc2c1` [Tinopal™ SOP], the log P (usually a log measure of how a compound divides between an organic and an aqueous phase) is reported as more than 2.5.
